Results on 14 molecules are retold here after patent publication US20260183303A1, “PDK1 REGULATORY COMPOUND AND COMPOSITION CONTAINING THE SAME” (PROVIBIO CO., LTD., priority 2024, published 2026).

In series [1] the test system is T cells isolated from mouse spleens. The series is described as follows: T cell proliferation inhibition (CFSE flow cytometry, anti-CD3/anti-CD28 activation). It is filed as cell-based, C57BL/6 mice. The following applies: mouse spleen T cells, CD3/CD28 activated, cultured three days. The method, then: To verify the T cell proliferation inhibitory effect of the compounds according to the present invention, the following experiment was performed based on flow cytometry analysis using carboxyfluorescein diacetate succinimidyl ester (CFSE), a fluorescent dye that binds to intracellular molecules via covalent bonds.
Spleens were extracted from 7-week-old C57BL/6 mice, ground, and then separated into single cells using a strainer ([…], SPL). Red blood cells were removed using ACK (Ammonium-Chloride-Potassium) lysis buffer to isolate white blood cells.
Finally, using a MACS Magnetic Stand and LS column, T cells were isolated from the spleen.
The T cells isolated from the spleen were resuspended in 1 mL of free medium (RPMI-1640+200 U/mL penicillin+200 μg/mL streptomycin), and 0.3 μL of CFSE (10 mM) was added. The mixture was incubated at 37° C. for 5 minutes.
Free medium (10 mL) was added to stop the reaction, and the cells were centrifuged to obtain the cell pellet.
RPMI 1640 medium containing 10% FBS, 100 U/mL penicillin, 100 μg/mL streptomycin, and resuspended the cells. The cells were then seeded into a 96-well plate at a density of 2×10^5 cells per well and activated with CD3 and CD28 antibodies ([…]) to activate T cells.
The compound diluted in DMSO was added at concentrations of 10 nM, 100 nM, 1 μM, […], 30 μM, and 50 µM, with three wells per concentration, and cultured at 37° C. and 5% CO2 for three days. The cells were then analyzed using a FACS Canto instrument.
The proliferation inhibition rate (%) was calculated using the following formula: […]
(In flow cytometry, cells or beads pass a laser one at a time.)

Series [2] has as its system Human B Lymphocyte cell line, SU-DHL-8. Put plainly: Relative cell viability (CCK-8), SU-DHL-8. The format is cell-based. The following applies: 48 hours, untreated cells (DMSO) = 100%. The method, then:
Human-derived B lymphoma cell line SU-DHL-8 (Cat. #CRL-2961) purchased from ATCC was cultured in RPMI-1640 medium containing […], 100 U/mL penicillin, and 100 μg/mL streptomycin.
The cell culture medium was then harvested, centrifuged at 1,300 rpm for 5 minutes, and the supernatant was removed. The cells were resuspended in the same medium and dispensed into a 96-well plate (Costar 96-well cell culture plate, Corning) at 90 μL per well, resulting in the conditions specified in Table 5.
Then, 10 μL of CCK-8 was added to each well, and the plates were incubated again at 37° C. in a 5% CO2 incubator for 4 hours.
In other words, when the survival rate of untreated cells (DMSO) is set at 100%, the relative cell survival rate in each group treated with the drug at different concentrations is indicated.

In the case of `CN(C)C1CCN(CCCCCCCCCCCCNC(=O)c2cccnc2N)C1` (centres unmarked) [Compound 19, 2-Amino-N-(12-(3-(dimethylamino)pyrrolidin-1-yl)dodecyl) nicotinamide], the “Proliferation inhibition rate (%)” value is on record as −14.40% in series [1] (10 nM); 100.00% in series [1] (100 nM); 100.00% in series [1] (1 μM); 100.00% in series [1] (10 μM); 100.00% in series [1] (30 μM); 100.00% in series [1] (50 μM). The “Relative cell viability (%)” value was found to be 8.51% in series [2] (SU-DHL-8, 1 μM); 7.51% in series [2] (SU-DHL-8, 10 μM); 5.98% in series [2] (SU-DHL-8, 30 μM); 5.08% in series [2] (SU-DHL-8, 50 μM).
Turning to `CN(C)CCN1CCN(CCCCCCCCCCCCNC(=O)c2cccnc2N)CC1` [Compound 33, 2-Amino-N-(12-(4-(2-(dimethylamino)ethyl)piperazin-1-yl)dodecyl) nicotinamide], the “Proliferation inhibition rate (%)” value in series [1] (10 nM) was −36.05%; in series [1] (100 nM), 100.00%; in series [1] (1 μM) it was 100.00%; in series [1] (10 μM), 100.00%; in series [1] (30 μM), 100.00%; in series [1] (50 μM), 100.00%. Further, the “Relative cell viability (%)” value came out at 4.32% in series [2] (SU-DHL-8, 10 μM); 3.35% in series [2] (SU-DHL-8, 30 μM); 2.66% in series [2] (SU-DHL-8, 50 μM).
On to `Cl.Nc1ncccc1C(=O)NCCCCCCCCCCCCN1CC[C@H](N)C1` [Compound 50, (S)-2-Amino-N-(12-(3-aminopyrrolidin-1-yl)dodecyl) nicotinamide hydrochloride], for which the “Proliferation inhibition rate (%)” value in series [1] (100 nM), in series [1] (1 μM), in series [1] (10 μM), in series [1] (30 μM) and in series [1] (50 μM) was 100.00% each time. Moreover, the “Relative cell viability (%)” value in series [2] (SU-DHL-8, 1 μM) was 9.20%.
On to `CC1CNCCN1CCCCCCCCCCCCNC(=O)c1cccnc1N` (centres unmarked) [Compound 35, 2-Amino-N-(12-(2-methylpiperazin-1-yl)dodecyl) nicotinamide], for which the “Proliferation inhibition rate (%)” value in series [1] (100 nM), in series [1] (1 μM), in series [1] (10 μM), in series [1] (30 μM) and in series [1] (50 μM) was 100.00% in each case. The “Relative cell viability (%)” value in series [2] (SU-DHL-8, 10 μM) amounted to 0.64%; in series [2] (SU-DHL-8, 30 μM) it was 0.42%.
Regarding `Cc1ccc(OC2CCN(CCCCCCCCCCCCNC(=O)c3cccnc3N)CC2)cc1` [Compound 51, 2-Amino-N-(12-(4-(p-tolyloxy)piperidin-1-yl)dodecyl) nicotinamide], the “Proliferation inhibition rate (%)” value in series [1] (10 nM) is listed as 0.77%; in series [1] (1 μM) it was 100.00%; in series [1] (10 μM), 100.00%; in series [1] (30 μM), 100.00%; in series [1] (50 μM), 100.00%. For the same molecule, the “Relative cell viability (%)” value is 0.89% in series [2] (SU-DHL-8, 30 μM) and 0.48% in series [2] (SU-DHL-8, 50 μM).
Take `Nc1ncccc1C(=O)NCCCCCCCCCCCCN1CCS(=O)(=O)CC1` [Compound 25, 2-Amino-N-(12-(1,1-dioxidothiomorpholino)dodecyl) nicotinamide]: the “Proliferation inhibition rate (%)” value in series [1] (1 μM), in series [1] (10 μM), in series [1] (30 μM) and in series [1] (50 μM) was 100.00% each time. In addition, the “Relative cell viability (%)” value in series [2] (SU-DHL-8, 30 μM) worked out at 0.11%; in series [2] (SU-DHL-8, 50 μM) it was 0.95%.
On to `COC1CCN(CCCCCCCCCCCCNC(=O)c2cccnc2N)CC1` [Compound 94, 2-amino-N-(12-(4-methoxypiperidin-1-yl)dodecyl) nicotinamide], for which the “Proliferation inhibition rate (%)” value in series [1] (100 nM), in series [1] (1 μM), in series [1] (10 μM), in series [1] (30 μM) and in series [1] (50 μM) was 100.00% throughout.
Consider `CC1CN(CCCCCCCCCCCCNC(=O)c2cccnc2N)C(C)CN1.Cl` (centres unmarked) [Compound 36, 2-Amino-N-(12-(2,5-dimethylpiperazin-1-yl)dodecyl) nicotinamide hydrochloride], for which the “Proliferation inhibition rate (%)” value in series [1] (100 nM), in series [1] (1 μM), in series [1] (10 μM), in series [1] (30 μM) and in series [1] (50 μM) was 100.00% throughout.
Consider `CC1CN(C)C(CCCCCCCCCCCCNc2ccc3cncnc3n2)N1` (centres unmarked) [Compound 43], for which the “Proliferation inhibition rate (%)” value in series [1] (100 nM), in series [1] (1 μM), in series [1] (10 μM), in series [1] (30 μM) and in series [1] (50 μM) was 100.00% in each case.
Consider `CC(C)(C)OC(=O)N[C@@H]1CCCN(CCCCCCCCCCCCNC(=O)c2cccnc2N)C1` [Compound 117, tert-butyl-(R)-(1-(12-(2-aminonicotinamido)dodecyl)piperidin-3-yl)carbamate], for which, in series [1] (Mus musculus, T-cell, 72 h, 10 nM, read-out: Proliferation inhibition rate (%)), the inhibition at 0.01 µM was -15.8%. The inhibition at 0.1 µM in series [1] (Mus musculus, T-cell, 72 h, 100 nM, read-out: Proliferation inhibition rate (%)) turned out to be 100%. In addition, the inhibition at 1 µM in series [1] (Mus musculus, T-cell, 72 h, 1 μM, read-out: Proliferation inhibition rate (%)) is 100%. The inhibition at 10 µM in series [1] (Mus musculus, T-cell, 72 h, 10 μM, read-out: Proliferation inhibition rate (%)) was 100%. The inhibition at 30 µM in series [1] (Mus musculus, T-cell, 72 h, 30 μM, read-out: Proliferation inhibition rate (%)) came out at 100%. Further, the inhibition at 50 µM in series [1] (Mus musculus, T-cell, 72 h, 50 μM, read-out: Proliferation inhibition rate (%)) came out at 100%.
Turning to `Nc1ncccc1C(=O)NCCCCCCCCCCCCN1CC(F)(F)C1` [Compound 122, 2-Amino-N-(12-(3,3-difluoroazetidin-1-yl)dodecyl) nicotinamide], the “Proliferation inhibition rate (%)” value in series [1] (10 nM) was found to be 0.00%; in series [1] (100 nM), 0.00%; in series [1] (1 μM) it was 80.00%; in series [1] (10 μM), 100.00%; in series [1] (30 μM) it was 100.00%; in series [1] (50 μM) it was 100.00%.
Turning to `C[C@H]1CNCCN1CCCCCCCCCCCCNC(=O)c1cccnc1N.Cl` [Compound 37, (S)-2-Amino-N-(12-(2-methylpiperazin-1-yl)dodecyl) nicotinamide hydrochloride], the “Proliferation inhibition rate (%)” value in series [1] (1 μM), in series [1] (10 μM), in series [1] (30 μM) and in series [1] (50 μM) was 100.00% in each case.
`Nc1ncccc1C(=O)NCCCCCCCCCCCCN1CCC(O)CC1` [Compound 48, 2-Amino-N-(12-(4-hydroxypiperidin-1-yl)dodecyl) nicotinamide]: the “Proliferation inhibition rate (%)” value in series [1] (100 nM), in series [1] (1 μM), in series [1] (10 μM), in series [1] (30 μM) and in series [1] (50 μM) was 100.00% each time.
On to `CN(CCCCCCCCCCCCNC(=O)c1cccnc1N)C1CCCCC1` [Compound 34, 2-Amino-N-(12-(cyclohexyl(methyl)amino)dodecyl) nicotinamide], for which the “Proliferation inhibition rate (%)” value in series [1] (100 nM), in series [1] (1 μM), in series [1] (10 μM), in series [1] (30 μM) and in series [1] (50 μM) was 100.00% in each case.
